Test results as given in patent publication US5545669A, “Anti-inflammatory compounds” (priority 1994, dated 1996).

Legend:
human neutrophils = assay: Assay (c): Arachidonic acid release assay, A23187-challenged human neutrophils; format: cell-based; settings: calcium ionophore A23187 2 μM
Method: Human neutrophils are obtained in the laboratory using three different methods. One method uses leukophoresis packs from normal humans and neutrophils are isolated using the histopaque-1077 technique. The blood is centrifuged at 300×g for 10 minutes. The cell pellets are resuspended in PBS composed of 137 mM NaCI, 8.8 mM Na2HPO4, 1.5 mM KH2 PO4, 2.7 mM KCI (Dulbecco's Gibco Laboratories, Long Island, N.Y.) and layered over histopaque-1077 (Sigma, St. Louis, Mo.). The pellets are collected after centrifugation (300×g for 30 minutes) and washed once in PBS. The cell pellets are exposed briefly to deionized water to lyse any erythrocytes. The remaining cells are collected by centrifugation, suspended in PBS, counted and identified after cytospinning and staining. The final leukocyte preparation will be of greater than 95% purity and viability.
The second method isolates human neutrophils from fresh heparinized normal blood using the Histopaque-1077 technique. […] The remaining cells are collected by centrifugation, suspended in PBS, counted and identified after cytospinning and staining. […]
The third method isolates human neutrophils from freshly drawn heparinized normal blood using the Percoll technique. […] The neutrophils are suspended in PBS, counted and identified after cytospinning and staining. […]

[1] = test system: LTC4 release by human monocytes; assay: Assay (f): stimulated eicosanoid release by human monocytes, LTC4; format: cell-based; settings: Monocyte, 0.25 h, A23187 1 μM, 15 min
Method: Human Monocyte Isolation. Leukocyte-rich leukopaks obtained from Biological Specialties (Lansdale, Pa.) were collected from male volunteers who were not taking antiinflammatory drugs. Leukopaks were centrifuged (90×g for 15 min) twice to remove the platelet-rich plasma. The cell pellet was washed by centrifugation and resuspended in HBSS without Ca^2+ or Mg^2+. Histopaque 1077 was layered under the cell suspension and centrifuged at 400×g for 30 min to obtain the buffy coat. The interfacial buffy coat, containing monocytes and lymphocytes, was removed and saved. The buffy coat was washed twice with HBSS Without Ca^2+ or Mg^2+ by centrifugation. The cell pellet (4-6×10^8 cells/30 mls) was resuspended in iso-osmotic media (RPMI-1640, 10% heat inactivated fetal bovine serum (FBS), 0.2 mM L-glutamine, 2.5 mM HEPES) and layered over an equal volume of 46% Percol mixture (10X PBS/Percol; 9.25/0.75) and 54% iso-osmotic media and centrifuged for 30 min at 1000×g (Marshall and Roshak, Biochem. Cell Biol. 71: 331-339, 1993). The monocyte population located at the interface of the Percoll gradient was removed and washed twice in HBSS without Ca^2+ or Mg^2+.
Measurement of Stimuli-Induced Eicosanoid Release Monocytes (5×10^6 /ml) were incubated as a suspension in serum-free RPMI-1640 medium containing the vehicle DMSO (<1%) or drug for 30 min at 27° C. after which vehicle or stimuli was added for the indicated time. The stimulating agent is solubilized in DMSO and appropriate vehicle controls were included in all experiments. The amount of stimuli was chosen from the linear portion of a concentration versus product curve usually representing 60-80% maximal stimulation over the indicated incubation time at 37° C. (A23187, 1 μM,(15 min). The reaction was terminated by reduction of pH through addition of citric acid and centrifugation (10 min, 400×g, 4° C.). Cell viability was monitored before and after experiments using trypan blue exclusion. The cell-free media was decanted and stored at -70° C. until analyzed. Prostaglandin E2 and LTC4 were directly measured in cell-free media using enzyme immunoassay (EIA) kits purchased from Caymen Chemical Co. (Ann Arbor, Mich.). Sample or standard dilutions were made with appropriate media and analyzed in triplicate. Results were obtained by extrapolation from a standard curve prepared in the media and expressed as pg or ng/ml of sample.

- IC50 [1]: 300 nM
Structure (SMILES): O=C(O)c1ccccc1Oc1ccc(C(F)(F)F)cc1NS(=O)(=O)c1cc(C(F)(F)F)cc(C(F)(F)F)c1 [Example 1, 2-[2-[3,5-Bis(trifluoromethyl)phenylsulfonamido]-4-trifluoromethylphenoxy]benzoic acid]
- inhibition of arachidonic acid release (human neutrophils): positive activity
